According to patent US20120046332A1, “COMPOSITIONS AND METHODS FOR TREATING CORNEAL HAZE” (ALLERGAN, INC., priority 2010, published 2012):

What was measured:
adult skin fibroblasts [1] = test: myofibroblast transformation, anti-α-SMA immunocytochemistry / morphology; type: cell-based, human; conditions: co-treatment with TGF-β1 in serum-free medium; EP2 agonist 100 nM, EP4 agonist 10 nM
Text: FIGS. 1A-D show immunohistochemical staining of human adult skin fibroblasts treated with vehicle (FIG. 1A), transforming growth factor beta-1 (TGF-β1; FIG. 1B), TGF-β1+ prostaglandin receptor subtype-4 (EP4) agonist (FIG. 1C), or TGF-β1+ prostaglandin receptor subtype 2 (EP2) agonist (FIG. 1D). TGF-β1 induced transformation of myofibroblasts, which stained green with anti-alpha-smooth muscle actin (α-SMA) immunocytochemistry.
(§1) To perform the myofibroblast transformation assay, adult skin fibroblasts were cultured until 70% confluent, washed with phosphate buffered saline (PBS), and then starved in serum-free medium for 48 hours. Post starvation, cells were treated with TGF-β1 at 2 ng/ml alone or in combination with Compound V—100 nM, Compound II—10 nM or vehicle for 96 hrs in a fresh serum-free medium (TGF-beta1 from Sigma Aldrich, USA). Cell lysates were collected at the end of the study and Western blot was performed to monitor the expression of alpha-smooth muscle actin (α-SMA), the marker of myofibroblasts.
as §1, with “PBS,” for “phosphate buffered saline (PBS),”, “hrs.” for “hours.”, “TGF-beta1” for “TGF-β1”, “III—100” for “V—100”, “I—10” for “II—10”, “(TGF-β1” for “(TGF-beta1”
Normal skin fibroblasts are slim and spindle-shaped without detectable α-SMA (marker of myofibroblasts), 6 days post culturing in a serum-free medium (FIGS. 1-2).

adult skin fibroblasts [2] = test: myofibroblast transformation assay, Western blot of α-SMA expression; type: cell-based, human; conditions: co-treatment with TGF-β1 2 ng/ml for 96 hrs in serum-free medium; EP2 agonist 100 nM, EP4 agonist 10 nM
Procedure: as §1
Cells were washed with cold PBS three times and lysed with a lysis buffer containing phosphatase inhibitors and proteinase inhibitors (Invitrogen, San Diego, Calif.). Protein level in lysates was quantified (bicinchoninic acid (BCA) protein assay kit, Pierce, USA). For Western blot, an equal amount of protein was applied at each lane, and subjected to electrophoresis. […] Fluorescence signals associated with target proteins were detected upon exposure to fluorescence-sensitive films (Cell signaling Technology, Inc., Berverly, Mass.). […] Beta-actin, a house-keeping gene, was also quantified on the same membrane as an internal control for loading amount. […]

Structure (SMILES)	cell size (TGF-β1-induced increase) (adult skin fibroblasts [1])	α-SMA positive stress fibers (adult skin fibroblasts [1])	reduction of TGF-β1-induced α-SMA expression (Western blot) (adult skin fibroblasts [2])
O=C(O)CCCCCCN1C(=O)CC[C@@H]1/C=C/C(O)Cc1ccccc1 (stereo partly drawn) [Compound III]	but not cell size	significantly reduced	approximately 50%
CC1(C)C(=O)[C@H](C/C=C\CCCC(=O)O)[C@@H](/C=C/[C@H](O)CCc2sc3ccccc3c2Cl)[C@@H]1O [Compound I]	but not cell size	significantly reduced	~75%
